PubChem BioAssay (NCI)
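Results reflect a 48-hour exposure of cells in 96-well plates to compound at five concentrations. The concentration for 50% growth inhibition is given as GI50. The concentration for full growth arrest is given as TGI.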

Columns and labels:
Assay in all cases: NCI tumour cell line growth inhibition, 48 h
[1] = system: 786-0 renal
[2] = system: A498 renal
[3] = system: A549 NSCLC
[4] = system: ACHN renal
[5] = system: BT-549 breast
[6] = system: CAKI-1 renal
[7] = system: CCRF-CEM leukemia
[8] = system: COLO 205 colon
[9] = system: DU-145 prostate
[10] = system: EKVX NSCLC
[11] = system: HCC-2998 colon
[12] = system: HCT-116 colon
[13] = system: HCT-15 colon
[14] = system: HL-60(TB) leukemia
[15] = system: HOP-62 NSCLC
[16] = system: HOP-92 NSCLC
[17] = system: HS 578T breast
[18] = system: HT29 colon
[19] = system: K-562 leukemia
[20] = system: KM12 colon
[21] = system: LOX IMVI melanoma
[22] = system: M14 melanoma
[23] = system: MALME-3M melanoma
[24] = system: MCF7 breast
[25] = system: MDA-MB-231 breast
[26] = system: MDA-MB-435
[27] = system: MOLT-4 leukemia
[28] = system: NCI-H226 lung
[29] = system: NCI-H23 lung
[30] = system: NCI-H460 lung
[31] = system: NCI-H522 lung
[32] = system: NCI/ADR-RES ovarian
[33] = system: OVCAR-3 ovarian
[34] = system: OVCAR-4 ovarian
[35] = system: OVCAR-5 ovarian
[36] = system: OVCAR-8 ovarian
[37] = system: PC-3 prostate
[38] = system: RPMI-8226 leukemia
[39] = system: SF-268 CNS
[40] = system: SF-295 CNS
[41] = system: SF-539 CNS
[42] = system: SK-MEL-2 melanoma
[43] = system: SK-MEL-28 melanoma
[44] = system: SK-MEL-5 melanoma
[45] = system: SK-OV-3 ovarian
[46] = system: SN12C renal
[47] = system: SNB-19 CNS
[48] = system: SNB-75 CNS
[49] = system: SR leukemia
[50] = system: SW-620 colon
[51] = system: T-47D breast
[52] = system: TK-10 renal
[53] = system: U251 CNS
[54] = system: UACC-257 melanoma
[55] = system: UACC-62 melanoma
[56] = system: UO-31 renal

Q: Which results are given for CCOC(=O)c1c(CN2CCN(c3ccccc3)CC2)n(-c2ccccc2)c2cc(Br)c(O)cc12?
A: GI50 [1]: 5.23 µM; TGI [1]: 21.5 µM; GI50 [2]: 12.7 µM; TGI [2]: 26.8 µM; GI50 [3]: 3.58 µM; TGI [3]: > 100 µM; GI50 [4]: 8.39 µM; TGI [4]: 21.9 µM; GI50 [5]: 8.64 µM; TGI [5]: 23.9 µM; GI50 [6]: 15.3 µM; TGI [6]: 36.9 µM; GI50 [7]: 0.0602 µM; TGI [7]: > 100 µM; GI50 [8]: 21.3 µM; TGI [8]: 41.7 µM; GI50 [9]: 12.5 µM; TGI [9]: 28.2 µM; GI50 [10]: 11.2 µM; TGI [10]: 36.1 µM; GI50 [11]: 15.7 µM; TGI [11]: 32.5 µM; GI50 [12]: 4.39 µM; TGI [12]: 20.1 µM; GI50 [13]: 11.3 µM; TGI [13]: 38.6 µM; GI50 [14]: 4.12 µM; TGI [14]: > 100 µM; GI50 [15]: 17.2 µM; TGI [15]: 33.4 µM; GI50 [16]: 2.98 µM; TGI [16]: 11.7 µM; GI50 [17]: 14.4 µM; TGI [17]: > 100 µM; GI50 [18]: 11.8 µM; TGI [18]: 32.5 µM; GI50 [19]: 6.32 µM; TGI [19]: > 100 µM; GI50 [20]: 8.49 µM; TGI [20]: 39.9 µM; GI50 [21]: 3.1 µM; TGI [21]: 11.1 µM; GI50 [22]: 15 µM; TGI [22]: 41.6 µM; GI50 [23]: 16.5 µM; TGI [23]: 40.1 µM; GI50 [24]: 4.01 µM; TGI [24]: 47.5 µM; GI50 [25]: 15.7 µM; TGI [25]: 33.1 µM; GI50 [26]: 11.3 µM; TGI [26]: 34.4 µM; GI50 [27]: 3.56 µM; TGI [27]: 29.5 µM; GI50 [28]: 15.4 µM; TGI [28]: 30.9 µM; GI50 [29]: 14.9 µM; TGI [29]: 38.3 µM; GI50 [30]: 3.61 µM; TGI [30]: 21.3 µM; GI50 [31]: 16.1 µM; TGI [31]: 44.5 µM; GI50 [32]: 12.4 µM; TGI [32]: 41.7 µM; GI50 [33]: 13 µM; TGI [33]: 32.1 µM; GI50 [34]: 8.63 µM; TGI [34]: 24.6 µM; GI50 [35]: 9.98 µM; TGI [35]: 44.8 µM; GI50 [36]: 9.32 µM; TGI [36]: 57 µM; GI50 [37]: 3.21 µM; TGI [37]: 13.3 µM; GI50 [38]: 3.61 µM; TGI [38]: > 100 µM; GI50 [39]: 9.63 µM; TGI [39]: 41.4 µM; GI50 [40]: 4.7 µM; TGI [40]: 24.3 µM; GI50 [41]: 15.5 µM; TGI [41]: 34.9 µM; GI50 [42]: 17.2 µM; TGI [42]: 36.2 µM; GI50 [43]: 16.6 µM; TGI [43]: 42.1 µM; GI50 [44]: 8.82 µM; TGI [44]: 23.1 µM; GI50 [45]: 34 µM; TGI [45]: 80.9 µM; GI50 [46]: 5.68 µM; TGI [46]: 18.5 µM; GI50 [47]: 21 µM; TGI [47]: 53.5 µM; GI50 [48]: 17.7 µM; TGI [48]: 90.5 µM; GI50 [49]: 3.82 µM; TGI [49]: > 100 µM; GI50 [50]: 6.32 µM; TGI [50]: 48 µM; GI50 [51]: 7.59 µM; TGI [51]: 37.9 µM; GI50 [52]: 25 µM; TGI [52]: 58.9 µM; GI50 [53]: 6.43 µM; TGI [53]: 19 µM; GI50 [54]: 18.2 µM; TGI [54]: 50.9 µM; GI50 [55]: 16.1 µM; TGI [55]: 29.6 µM; GI50 [56]: 8.99 µM; TGI [56]: 23.1 µM
